Assay results: ChEMBL document CHEMBL1201862, “PubChem BioAssay data set” (2004)
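Method: 48-hour compound exposure of cells in 96-well plates, five concentrations, linear interpolation of endpoints. GI50 is the concentration that inhibits growth by half.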 The source made the active and inactive calls. No stated cut-off is given here; in the data, active = GI50 up to about 1.1 µM and inactive = higher.

Legend:
Test in all cases: growth of human tumour cells (NCI), 48 h
M14 = tested on: M14
LOX IMVI = tested on: LOX IMVI
BT-549 = tested on: BT-549
SF-539 = tested on: SF-539
KM12 = tested on: KM12
MDA-MB-231 = tested on: MDA-MB-231
T47D = tested on: T47D
SF-268 = tested on: SF-268
OVCAR-4 = tested on: OVCAR-4
RXF 393 = tested on: RXF 393
PC-3 = tested on: PC-3
SF-295 = tested on: SF-295
TK-10 = tested on: TK-10
RPMI-8226 = tested on: RPMI-8226
COLO 205 = tested on: COLO 205
CAKI-1 = tested on: CAKI-1
HL-60 = tested on: HL-60
MCF7 = tested on: MCF7
SK-OV-3 = tested on: SK-OV-3
NCI-H226 = tested on: NCI-H226

SMILES	GI50 (M14)	GI50 (LOX IMVI)	GI50 (BT-549)	GI50 (SF-539)	GI50 (KM12)	GI50 (MDA-MB-231)	GI50 (T47D)	GI50 (SF-268)	GI50 (OVCAR-4)	GI50 (RXF 393)	GI50 (PC-3)	GI50 (SF-295)	GI50 (TK-10)	GI50 (RPMI-8226)	GI50 (COLO 205)	GI50 (CAKI-1)	GI50 (HL-60)	GI50 (MCF7)	GI50 (SK-OV-3)	GI50 (NCI-H226)
N=C(N)NC(=N)Nc1ccc(S(=O)(=O)O)cc1	> 100 µM (inactive)	> 100 µM (inactive)	> 100 µM (inactive)	> 100 µM (inactive)	> 100 µM (inactive)	> 100 µM (inactive)	> 100 µM (inactive)	> 100 µM (inactive)	> 100 µM (inactive)	> 100 µM (inactive)	> 100 µM (inactive)	> 100 µM (inactive)	> 100 µM (inactive)	> 100 µM (inactive)	> 100 µM (inactive)	> 100 µM (inactive)	> 100 µM (inactive)	> 100 µM (inactive)	> 100 µM (inactive)	> 100 µM (inactive)
C=C1C(=O)O[C@@H]2C(=O)[C@@H](C)[C@@H]3C=CC(=O)[C@@]3(C)[C@@H](OC(=O)/C(C)=C\C)[C@H]12 [MULTISTATIN]	1.56 µM (inactive)	0.555 µM (active)	0.689 µM (active)	1.84 µM (inactive)	2.3 µM (inactive)	1.88 µM (inactive)	0.483 µM (active)	1.69 µM (inactive)	5.04 µM (inactive)	0.378 µM (active)	2.29 µM (inactive)	13 µM (inactive)	0.538 µM (active)	0.327 µM (active)	0.237 µM (active)	0.264 µM (active)	0.132 µM (active)	0.394 µM (active)	13.1 µM (inactive)	2.38 µM (inactive)
Cc1cc2sc(C)[n+](CCCOS(=O)(=O)[O-])c2cc1C	> 100 µM (inactive)	> 100 µM (inactive)	> 100 µM (inactive)	> 100 µM (inactive)	> 100 µM (inactive)	> 100 µM (inactive)	58.6 µM (inactive)	62.5 µM (inactive)	> 100 µM (inactive)	> 100 µM (inactive)	> 100 µM (inactive)	> 100 µM (inactive)	> 100 µM (inactive)	53 µM (inactive)	> 100 µM (inactive)	> 100 µM (inactive)	> 100 µM (inactive)	60.8 µM (inactive)	> 100 µM (inactive)	> 100 µM (inactive)
O=C(O)C1CCCN1Cc1cc2ccccc2c2ccccc12 (stereo not given)	> 100 µM (inactive)	> 100 µM (inactive)	> 100 µM (inactive)	> 100 µM (inactive)	> 100 µM (inactive)	> 100 µM (inactive)	> 100 µM (inactive)	> 100 µM (inactive)	> 100 µM (inactive)	> 100 µM (inactive)	> 100 µM (inactive)	> 100 µM (inactive)	> 100 µM (inactive)	> 100 µM (inactive)	> 100 µM (inactive)	> 100 µM (inactive)	> 100 µM (inactive)	> 100 µM (inactive)	> 100 µM (inactive)	> 100 µM (inactive)
CC1(C)OCC2OC(n3cnc4c(N)nc(Cl)nc43)C(OS(C)(=O)=O)C2O1 (stereo not given)	> 100 µM (inactive)	> 100 µM (inactive)	> 100 µM (inactive)	> 100 µM (inactive)	> 100 µM (inactive)	> 100 µM (inactive)	> 100 µM (inactive)	> 100 µM (inactive)	> 100 µM (inactive)	> 100 µM (inactive)	> 100 µM (inactive)	> 100 µM (inactive)	> 100 µM (inactive)	> 100 µM (inactive)	> 100 µM (inactive)	> 100 µM (inactive)	> 100 µM (inactive)	> 100 µM (inactive)	> 100 µM (inactive)	> 100 µM (inactive)
Oc1ccc2c(c1)OCC1c3ccccc3OC21 (stereo not given)	74 µM (inactive)	32.3 µM (inactive)	55.2 µM (inactive)	> 100 µM (inactive)	45.4 µM (inactive)	78 µM (inactive)	> 100 µM (inactive)	25.4 µM (inactive)	60.8 µM (inactive)	94.2 µM (inactive)	56.8 µM (inactive)	50.6 µM (inactive)	87.7 µM (inactive)	45.7 µM (inactive)	> 100 µM (inactive)	46.3 µM (inactive)	28.8 µM (inactive)	86.5 µM (inactive)	> 100 µM (inactive)	> 100 µM (inactive)
CC[n+]1c(/C=C/c2ccc(N(CCCl)CCCl)cc2)ccc2cc(NC(=O)/C=C/c3ccccc3)ccc21	0.436 µM (active)	0.329 µM (active)	0.628 µM (active)	0.308 µM (active)	0.423 µM (active)	0.32 µM (active)	0.249 µM (active)	0.393 µM (active)	0.254 µM (active)	0.315 µM (active)	0.402 µM (active)	0.45 µM (active)	2.95 µM (inactive)	0.218 µM (active)	0.104 µM (active)	2.13 µM (inactive)	0.115 µM (active)	0.139 µM (active)	0.578 µM (active)	0.456 µM (active)
CCOC(=O)n1c(=O)nc2c3c(ncn21)Oc1c(c(-c2ccccc2)nn1-c1ccccc1)C3c1ccc(Cl)cc1 (stereo not given)	1.92 µM (inactive)	1.46 µM (inactive)	1.57 µM (inactive)	1.56 µM (inactive)	1.56 µM (inactive)	1.4 µM (inactive)	1.77 µM (inactive)	1.58 µM (inactive)	1.15 µM (inactive)	1.57 µM (inactive)	1.73 µM (inactive)	1.86 µM (inactive)	1.7 µM (inactive)	1.46 µM (inactive)	1.32 µM (inactive)	1.61 µM (inactive)	1.26 µM (inactive)	1.56 µM (inactive)	2.86 µM (inactive)	1.63 µM (inactive)
CN1C(c2ccccc2)=CC(=O)C(O)=C(c2ccccc2)S1(=O)=O	> 100 µM (inactive)	> 100 µM (inactive)	> 100 µM (inactive)	> 100 µM (inactive)	> 100 µM (inactive)	> 100 µM (inactive)	> 100 µM (inactive)	> 100 µM (inactive)	> 100 µM (inactive)	> 100 µM (inactive)	> 100 µM (inactive)	> 100 µM (inactive)	> 100 µM (inactive)	> 100 µM (inactive)	> 100 µM (inactive)	> 100 µM (inactive)	> 100 µM (inactive)	> 100 µM (inactive)	> 100 µM (inactive)	> 100 µM (inactive)
Cc1ccc(S(=O)(=O)NC(=O)NNc2ccc(F)cc2)cc1	> 100 µM (inactive)	> 100 µM (inactive)	> 31.6 µM (inactive)	> 100 µM (inactive)	> 100 µM (inactive)	> 100 µM (inactive)	> 100 µM (inactive)	> 100 µM (inactive)	> 100 µM (inactive)	> 100 µM (inactive)	> 100 µM (inactive)	> 100 µM (inactive)	> 100 µM (inactive)	> 27 µM (inactive)	> 100 µM (inactive)	> 100 µM (inactive)	> 100 µM (inactive)	> 100 µM (inactive)	> 100 µM (inactive)	> 100 µM (inactive)
